Earlier results in patent US8715726B2 (Eurofarma Laboratories S.A., priority 2007, dated 2014).

For `COc1cccc(C2(O)CCCCC2CN(C)C)c1` (stereo not drawn) [Tramadol, 2-((dimethylamino)methyl)-1-(m-methoxyphenyl)-cyclohexanol], the metabolism (in vivo) is listed as “extensively metabolised in the liver”, the “dose excreted in the form of metabolites” value (oral administration) is listed as 60% and the “dose excreted in the urine not having been metabolised” value (oral administration) is listed as “Approximately 30%”.
